# Where “and” joins values, the source holds several entries; their conditions need not be identical. Identical values can stand only once. Entries after “also recorded” stand apart in the source; their conditions may differ.
# How the values were obtained:
# [1] = CIRT; cited from earlier work
# [2] = test system: patients with stable coronary disease; details: in vivo; cited from earlier work
# [3] = test system: patients recruited within 30 days after a myocardial infarction; details: in vivo
# [4] = test system: patients recruited within 30 days after a myocardial infarction; details: human, in vivo
# [5] = test system: High-sensitivity C-reactive protein; details: in vivo
# white-cell count = details: in vivo
compound,measurement,setting,value
CN(Cc1cnc2nc(N)nc(N)c2n1)c1ccc(C(=O)N[C@@H](CCC(=O)O)C(=O)O)cc1 [methotrexate],cardiovascular outcomes and plasma markers of inflammation (in words),[1],did not affect cardiovascular outcomes or plasma markers of inflammation
COc1cc2c(c(OC)c1OC)-c1ccc(OC)c(=O)cc1[C@@H](NC(C)=O)CC2 [Colchicine],cardiovascular events (in words),[2],fewer cardiovascular events
same,Anemia,[3],14 (0.6) number of patients (percent)
same,Any serious adverse event,[3],383 (16.4) number of patients (percent)
same,At least one gastrointestinal adverse event,[3],17.5%
same,"Diarrhea reported, % of the patients",[3],9.7%
same,Gastrointestinal hemorrhage,[3],7 (0.3) number of patients (percent)
same,Gastrointestinal serious adverse event,[3],46 (2.0) number of patients (percent)
same,Hospitalization for heart failure,[3],25 (1.1) number of patients (percent)
same,"Infection as a serious adverse event, % of the patients",[3],2.2%
same,Infection serious adverse event,[3],51 (2.2) number of patients (percent)
same,Leukopenia,[3],2 (0.1) number of patients (percent)
same,Nausea adverse event,[3],43 (1.8) number of patients (percent)
same,"Pneumonia reported as a serious adverse event, % of the patients",[3],0.9%
same,Pneumonia serious adverse event,[3],21 (0.9) number of patients (percent)
same,Septic shock serious adverse event,[3],2 (0.1) number of patients (percent)
same,Thrombocytopenia,[3],3 (0.1) number of patients (percent)
same,incidence of adverse events considered to be related to trial drug,[3],16.0%
same,incidence of septic shock (in words),[3],did not increase the incidence of septic shock
same,"nausea, % of the patients",[3],1.8%
same,overall incidence of serious adverse events,[3],16.4%
same,serious adverse event of myopathy (in words),[3],no serious adverse event of myopathy linked to colchicine
same,"trial regimen discontinued, % of the patients",[3],18.4%
same,"Adjusted Hazard Ratio (95% CI), time to first primary endpoint",[4],0.78 (0.62-0.98)
same,Death,[4],43 (1.8) number (percent)
same,Death from cardiovascular causes,[4],20 (0.8) number (percent)
same,Deep venous thrombosis or pulmonary embolus,[4],10 (0.4) number (percent)
same,"Hazard Ratio (95% CI), CV death",[4],0.83 (0.45-1.53)
same,"Hazard Ratio (95% CI), Death",[4],0.98 (0.64–1.49)
same,"Hazard Ratio (95% CI), Deep venous thrombosis or pulmonary embolus",[4],1.43 (0.54–3.75)
same,"Hazard Ratio (95% CI), MI",[4],0.84 (0.62-1.14)
same,"Hazard Ratio (95% CI), Resuscitated cardiac arrest",[4],1.00 (0.29-3.46)
same,"Hazard Ratio (95% CI), Stroke",[4],0.26 (0.10-0.71)
same,"Hazard Ratio (95% CI), Urgent hospitalization for angina requiring revascularization",[4],0.47 (0.28-0.78)
same,"Hazard Ratio (95% CI), WLW model, 1st Event",[4],0.77 (0.61; 0.96)
same,"Hazard Ratio (95% CI), WLW model, 2nd Event",[4],0.73 (0.48; 1.11)
same,"Hazard Ratio (95% CI), WLW model, 3rd Event",[4],0.64 (0.37; 1.10)
same,"Hazard Ratio (95% CI), WLW model, Average",[4],0.77 (0.61; 0.96)
same,"Hazard Ratio (95% CI), total primary endpoint events, Andersen-Gill model",[4],0.69 (0.54; 0.88)
same,MI,[4],77 (3.4%) no. (%)
same,Myocardial infarction,[4],89 (3.8) number (percent)
same,Number of primary endpoint events per patient: 0 (number of patients),[4],2235
same,Number of primary endpoint events per patient: 1 (number of patients),[4],111
same,Number of primary endpoint events per patient: 2 (number of patients),[4],18
same,Number of primary endpoint events per patient: 3 (number of patients),[4],1
same,Number of primary endpoint events per patient: 4 (number of patients),[4],1
same,Primary endpoint,[4],115(5.1%) no. (%)
same,Rate of primary endpoint events per 100 patient-months,[4],0.29 per 100 patient-months
same,Secondary composite end point,[4],111 (4.7) number (percent)
same,Total number of primary endpoint events,[4],154
same,Urgent hospitalization for angina leading to revascularization,[4],25 (1.1) number (percent)
same,Urgent hospitalization for angina requiring revascularization,[4],22 (1.0%) no. (%)
same,ischemic cardiovascular events / primary composite efficacy end point compared with placebo (in words),[4],significantly lower percentage of patients with ischemic cardiovascular events than placebo; also recorded: statistically significant lower risk of ischemic cardiovascular events than placebo
same,primary end point occurred in % of the patients,[4],5.5% and 5.1%
same,secondary efficacy end point occurred in % of the patients,[4],4.7%
same,"Hs-C reactive protein, 6 months, geometric mean (IQR)",[5],"1.37 (0.75, 2.13) mg/L"
same,"Hs-C reactive protein, Adjusted GM percent change (95% CI)",[5],"-70.0% and -70.0 (-74.6, -64.5) %"
same,"Hs-C reactive protein, Placebo-adjusted GM percent change (95% CI)",[5],"-10.1% and -10.1 (-28.6, 13.4) %"
same,"Hs-C reactive protein, Randomization, geometric mean (IQR)",[5],"4.27 (2.12, 7.22) mg/L"
same,reduction in the C-reactive protein level,[5],> 65%
same,"Circulating lymphocytes, 12 months, geometric mean (IQR)",white-cell count,"1.83 (1.50, 2.44) 10^3/µL"
same,"Circulating lymphocytes, Adjusted GM percent change (95% CI)",white-cell count,"1.80 (-0.46, 4.11) %"
same,"Circulating lymphocytes, Placebo-adjusted GM percent change (95% CI)",white-cell count,"1.10 (-2.06, 4.36) %"
same,"Circulating lymphocytes, Randomization, geometric mean (IQR)",white-cell count,"1.79 (1.40, 2.40) 10^3/µL"
same,"Circulating neutrophils, 12 months, geometric mean (IQR)",white-cell count,"3.95 (3.27, 5.08) 10^3/µL"
same,"Circulating neutrophils, Adjusted GM percent change (95% CI)",white-cell count,"-27.63 (-29.48, -25.73) %"
same,"Circulating neutrophils, Placebo-adjusted GM percent change (95% CI)",white-cell count,"0.45 (-3.28, 4.32) %"
same,"Circulating neutrophils, Randomization, geometric mean (IQR)",white-cell count,"5.45 (4.36, 7.15) 10^3/µL"
same,"Total white blood cell count, 12 months, geometric mean (IQR)",white-cell count,"6.95 (5.99, 8.30) 10^3/µL"
same,"Total white blood cell count, Adjusted GM percent change (95% CI)",white-cell count,"-18.8% and -18.81 (-20.12, -17.47) %"
same,"Total white blood cell count, Placebo-adjusted GM percent change (95% CI)",white-cell count,"0.3% and 0.26 (-2.15, 2.72) %"
same,"Total white blood cell count, Randomization, geometric mean (IQR)",white-cell count,"8.54 (7.10, 10.40) 10^3/µL"

# Source: patent EP3821889A1, “METHODS FOR USING LOW-DOSE […] MYOCARIAL INFARCTION” (Institut de Cardiologie de Montréal, priority 2019, dated 2021)
